“And” between values parts separate entries of the source, which are not always exact repeats. Equal values may be shown once.
What was measured:
[1] = tested on: Staphylococcus aureus ATCC 6538; experiment: Microbiological potency by agar diffusion; assay type: cell-based; conditions: for Potency IU/mg powder: agar diffusion, Example 1 spiking experiments; for Potential potency IU/mg (TA2 + TA3-1): potency of the powder related to its HPLC content of TA2 + TA3-1
Method: Accordingly, in one embodiment a Teicoplanin composition as described herein, has a higher antibiotic activity than a corresponding Teicoplanin composition that has a % (mg TA3)/(mg TA3+TA2) of 6.5%, where the antibiotic activity is measured by a microbiological agar diffusion assay using Staphylococcus aureus ATCC 6538 as test strain and the measured potential potency (IU per mg TA2+TA3/g composition) is used to calculate the antibiotic activity.
(§1) Potency of Teicoplanin TA2, TA3-1 alone or in combination was determined by agar diffusion assays. Furthermore, the antimicrobial effect of pure and spiked products was investigated through the determination of the minimum inhibitory concentration (MIC) by a modified “MIC” test in micro titer trays.
The potency test is carried out according to the assay described below. The assay method generally corresponds to USP 25 and Ph.Eur 4th ed., but differs from both with respect to test strain and from the USP with respect to agar holes (ponds) as preferred to cylinders. The test is carried out as a 2,2 design as described in section <111> of the USP.
Stock solutions of standards and samples were prepared to approximately 900 IU/ml. The Teicoplanin standard contained approximately 25.0 mg in 4.0 ml water and buffer ad 25.0 ml. The samples of Teicoplanin compositions contained approximately 25.0 mg in 4.0 ml water and buffer ad 25.0 ml. The amount of sample was adjusted according to the actual amount of standard weighed. Finally, the standard and sample were diluted with buffer to the following concentrations:
The standard or sample was applied to the plates in accordance with an 8×8 Latin square design. Immediately after application, place the plates in the incubator at 34.0° C.±2° C., for 16-18 hours.
The results are analyzed by reading the zone diameters carefully with a 10× magnification and a precision of 0.1 mm. Statistical evaluation: for calculation and validation, follow the guidelines set out in Ph. Eur. and USP, using a computer program for all calculations.
In the spiking experiments, the amount of the investigated sample (amount of powder weighed) was reduced and replaced by a corresponding amount of spiking material or stock solutions were mixed in defined ratios.
(§2) Potency of teicoplanin TA2, TA3-1 alone or in combinations was determined by agar diffusion assays as described in example 1. Modified MIC-values in microtitre trays were determined as described in example 1.

S. aureus ATCC 6538 = experiment: Modified MIC test in micro titer trays; assay type: cell-based, Staphylococcus aureus; conditions: for MIC: 24 hours, 37° C.
Method: as §1
Pure TA3-1, (Teicoplanin Material B 96% TA2-X, 4% TA3-1) and mixtures thereof were used. The test strain used was S. aureus ATCC 6538 in final concentrations of 5×10^5/ml and 5×10^4/ml respectively. The test was carried out in micro titer trays as a modification of an ordinary MIC test. Instead of using two-fold dilutions, 0.40-1.20 μg/ml with 0.20 μl divisions and 1.0-4.0 μl/ml with 1.0 μl divisions was used. The trays were incubated at 37° C. The wells were examined after 24 hours and any visible growth was noted.
In order to strengthen the evidence some experiments were performed with a modified antimicrobial analysis of Teicoplanin, spiked with different amounts of TA3-1. It was carried out in liquid medium in contrast to the agar diffusion tests and determined the MIC values. The results are summarized in Table 4, (“MIC”-values of Teicoplanin and/or TA3-1 on S. aureus ATCC6538).
as §2

MIC (S. aureus ATCC 6538; 5 × 10^4/ml S. aureus) [µg/mL] | MIC (S. aureus ATCC 6538; 5 × 10^5/ml S. aureus) [µg/mL] | MIC value of pure TA3-1 relative to Targocid alone (S. aureus ATCC 6538; Example 2, FIG. 6, MIC in μg powder/ml solution) | Structure (SMILES) | Potency IU/mg powder [1] | Potential potency IU/mg (TA2 + TA3-1) [1] | Potency compared with Targocid ([1]; Example 2, agar diffusion) | Antimicrobial effect on S. aureus compared with Teicoplanin (S. aureus ATCC 6538; Example 1, MIC determination) | Antimicrobial effect on S. aureus relative to teicoplanin TA2 (S. aureus ATCC 6538; Example 2, MIC determination)
 |  |  | CC(=O)N[C@H]1[C@H](O[C@@H]2c3ccc(c(Cl)c3)Oc3cc4cc(c3O[C@@H]3O[C@H](CO)[C@@H](O)[C@H](O)[C@H]3NC(=O)CCCCCCC(C)C)Oc3ccc(cc3Cl)C[C@H]3NC(=O)[C@H](N)c5ccc(O)c(c5)Oc5cc(O)cc(c5)[C@H](NC3=O)C(=O)N[C@H]4C(=O)N[C@H]3C(=O)N[C@@H]2C(=O)N[C@H](C(=O)O)c2cc(O)cc(O[C@H]4O[C@H](CO)[C@@H](O)[C@H](O)[C@@H]4O)c2-c2cc3ccc2O)O[C@H](CO)[C@@H](O)[C@@H]1O [TA2-2, Teicoplanin A2-2] | 807 IU/mg powder and 776 IU/mg powder | 1017 IU/mg (TA2 + TA3-1) and 994 IU/mg (TA2 + TA3-1) |  |  | 
2 to 3 | 2 to 3 | 4-5 times higher | CC(=O)N[C@H]1[C@H](O[C@@H]2c3ccc(c(Cl)c3)Oc3cc4cc(c3O)Oc3ccc(cc3Cl)C[C@H]3NC(=O)[C@H](N)c5ccc(O)c(c5)Oc5cc(O)cc(c5)[C@H](NC3=O)C(=O)N[C@H]4C(=O)N[C@H]3C(=O)N[C@@H]2C(=O)N[C@H](C(=O)O)c2cc(O)cc(O[C@H]4O[C@H](CO)[C@@H](O)[C@H](O)[C@@H]4O)c2-c2cc3ccc2O)O[C@H](CO)[C@@H](O)[C@@H]1O [TA3-1, Teicoplanin A3-1] | 570 IU/mg powder | 687 IU/mg (TA2 + TA3-1) | much lower potency | much lower | 4-5

Reference: patent US7919470B2, “Glycopeptide composition with improved antibiotic activity” (Xellia Pharmaceuticals APS, priority 2003, dated 2011)
